Broadly, the melting point is the temperature of the solid-liquid transition.

Experimental findings from patent publication US6492416B1, “4,5-diaryl-3(2H)-furanone derivatives as cyclooxygenase-2 inhibitors” (Pacific Corporation, priority 1999, dated 2002) are described below.

Series [1] deals with T1, COX-2 (Mus musculus, UniProt Q05769).
T1 sequence (Q05769 18-604): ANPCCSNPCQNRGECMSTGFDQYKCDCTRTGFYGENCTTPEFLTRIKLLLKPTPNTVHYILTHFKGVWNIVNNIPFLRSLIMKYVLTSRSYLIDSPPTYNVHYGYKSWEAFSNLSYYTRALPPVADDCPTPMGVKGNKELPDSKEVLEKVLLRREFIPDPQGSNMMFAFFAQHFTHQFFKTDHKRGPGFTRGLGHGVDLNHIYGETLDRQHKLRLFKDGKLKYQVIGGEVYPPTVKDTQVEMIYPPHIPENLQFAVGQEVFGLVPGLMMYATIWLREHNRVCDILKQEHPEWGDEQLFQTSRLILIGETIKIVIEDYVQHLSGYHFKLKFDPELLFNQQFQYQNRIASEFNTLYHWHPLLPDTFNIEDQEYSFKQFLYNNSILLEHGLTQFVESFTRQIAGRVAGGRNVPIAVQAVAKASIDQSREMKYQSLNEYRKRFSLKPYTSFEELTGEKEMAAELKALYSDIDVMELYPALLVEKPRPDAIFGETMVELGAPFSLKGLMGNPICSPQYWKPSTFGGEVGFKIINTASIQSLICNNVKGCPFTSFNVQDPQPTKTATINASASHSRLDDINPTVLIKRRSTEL
Description: Evaluation of COX-2 activity: PGE2 formation in aspirin-treated, LPS-stimulated mouse peritoneal macrophages. In kind it is cell-based. Summed up: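 C57BL/6 peritoneal macrophages treated with 500 μM aspirin to block COX-1, adhered, then stimulated with 10 μg/ml LPS for 16 h at 37 °C to induce COX-2.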

Series [2] deals with T2, COX-1 (Mus musculus, UniProt P22437).
T2 sequence (P22437 27-602): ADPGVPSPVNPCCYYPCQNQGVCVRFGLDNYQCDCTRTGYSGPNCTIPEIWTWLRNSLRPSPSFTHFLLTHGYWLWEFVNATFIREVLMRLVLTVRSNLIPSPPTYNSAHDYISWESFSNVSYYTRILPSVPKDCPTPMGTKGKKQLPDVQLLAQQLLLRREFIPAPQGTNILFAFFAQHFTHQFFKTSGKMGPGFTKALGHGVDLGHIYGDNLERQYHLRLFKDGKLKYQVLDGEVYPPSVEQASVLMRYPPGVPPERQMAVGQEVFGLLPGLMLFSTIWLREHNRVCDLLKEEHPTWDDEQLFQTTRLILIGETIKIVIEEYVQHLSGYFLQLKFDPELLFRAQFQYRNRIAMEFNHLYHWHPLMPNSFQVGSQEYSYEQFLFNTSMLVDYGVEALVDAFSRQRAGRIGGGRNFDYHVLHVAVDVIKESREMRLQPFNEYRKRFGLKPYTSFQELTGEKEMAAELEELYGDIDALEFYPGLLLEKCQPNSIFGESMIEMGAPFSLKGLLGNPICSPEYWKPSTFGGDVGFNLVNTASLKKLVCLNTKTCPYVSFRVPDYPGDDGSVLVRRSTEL
In words: Evaluation of COX-1 activity: PGE2 formation in mouse peritoneal macrophages without aspirin and LPS treatment. In kind it is cell-based. Summed up:
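Peritoneal macrophages from C57BL/6 mice, without aspirin or LPS treatment, were plated at 1×10^6 cells/ml and fixed 2 h at 37 °C. Cells were preincubated 10 min, then given 10 μM arachidonic acid plus compound for 10 min; PGE2 was measured by RIA or EIA. IC50 came from 4–5 concentrations.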

Series [3] concerns male SD rat. Description: Gastric safety studies (Ulcer Index). The following applies: daily dose 30 mg/kg body weight oral for 7 days, mean of animals' scores. Type of series: in vivo. The procedure:
Gastric safety for compounds of this invention was evaluated as follows [Otterness et al., Laboratory Models for Testing Nonsteroidal Anti-inflammatory Drugs in Nonsteroidal Anti-inflammatory Drugs; ed John Wiley & Sons pp 217-227 (1985); Wiley Interscience; New York]: A designated dose of a compound of this invention suspended in 1% methylcellulose solution was administered daily once for 7 days to a male SD rat by oral gavage. The animal was sacrificed and the inner wall of the stomach was examined visually 4 hours after the last administration (the 7th day administration). The gastric safety was assessed by the “Ulcer Index” as defined as the following scores: […]
Score 1: apparently normal stomach.
Score 2: one or more than one ulcer site of pin-point size only.
Score 3: erosions of 2 or fewer than 2, which may be accompanied by ulcers of pin-point size (an erosion is defied by any ulcerative lesion of any dimension greater than 1 mm).
Score 4: erosions more than 2, which may be accompanied by ulcers of pin-point size.
Score 5: erosions accompanied by hemorrhage.
In evaluating the gastric safety of a compound of this invention, usually 8 animals were used. The ulcer index for a compound was calculated by averaging of the ulcer index of each animal. The following Table 5 illustrates gastric safety of some COX-2 selective inhibitors of this invention.

The nature of series [4]: Pharmacokinetic studies in rats. In kind it is in vivo, rat. The procedure:
An appropriate amount of a compound suspended 1% aqueous methylcellulose solution was administered to a male SD rat by oral gavage. Blood samples were collected from the retro-orbital sinus at designated times over 24˜48 hours. Plasma was separated from each blood sample by centrifugation and the plasma was stored at 4° C. until analysis. The plasma samples prepared thereby were subjected to analysis by reverse phase HPLC (high performance liquid chromatography) using an appropriate internal standard.

In brackets after ≈: the same amount, converted by molar mass.

On to `CC(=O)c1ccc(C2=C(c3ccc(S(C)(=O)=O)cc3)OC(C)(C)C2=O)cc1` [Example 10, 4-(4-Acetylphenyl)-2,2-dimethyl-5-{4-(methylsulfonyl)phenyl}-3(2H)-furanone], for which the “IC50, μg/ml COX-2” value in series [1] turned out to be 0.3 µg/mL (≈ 0.78 µM). Also, in series [2], the “IC50, μg/ml COX-1” value was 50 µg/mL (≈ 130 µM). The “Ulcer Index (1˜5)” value in series [3] was 1.2 ± 0.4.

On to `C[S+]([O-])c1ccc(C2=C(c3cccc(Cl)c3)C(=O)C(C)(C)O2)cc1` (stereo not shown) [Example 393, 4-(3-Chlorophenyl)-2,2-dimethyl-5-{4-(methylsulfinyl)phenyl}-3(2H)-furanone], for which the “IC50, μg/ml COX-2” value in series [1] is 0.3 µg/mL (≈ 0.831 µM). Moreover, the “IC50, μg/ml COX-1” value in series [2] is 5 µg/mL (≈ 13.9 µM). For the same molecule, the “biotransformation of the sulfoxide group into the sulfonyl group” value in series [4] (Example 393 orally administered to a SD rat at 10 mg/kg body weight, plasma, HPLC (FIG. 1)) is given as “biotransformed into the sulfonyl group”.

`CC1(C)OC(c2ccc(S(C)(=O)=O)cc2)=C(c2cccc(Cl)c2)C1=O` [Example 62, 4-(3-Chlorophenyl)-2,2-dimethyl-5-{4-(methylsulfonyl)phenyl}-3(2H)-furanone] had a melting point of 151 to 152 °C. In addition, the “IC50, μg/ml COX-2” value in series [1] stood at 0.01 µg/mL (≈ 0.0265 µM). Besides, the “IC50, μg/ml COX-1” value in series [2] is 2 µg/mL (≈ 5.31 µM). Besides, the “amounts detected in the plasma” value in series [4] (metabolite in plasma after oral administration of Example 393 to a SD rat at 10 mg/kg body weight (FIG. 1)) is on record as “appreciable amounts”.
